Measurements reported in US20140234350A1, “OVARIAN CANCER VACCINES AND VACCINATION METHODS” (Cedars-Sinai Medical Center, priority 2013, published 2014).

These sequences were tested on antigen-specific CTLs (CD8+ T cells) against T2 cells pulsed with CD133 HLA-A2 peptides (assay: IFN-γ ELISPOT assay of antigen-specific T cell response). Details: peptide-induced CTLs co-cultured with T2 cells pulsed with 10 μg/ml of peptides for 20 hours, compared with T2 control (no peptides); FIG. 3.
Assay type: cell-based, human
Experimental: To test this hypothesis, effector CD8^+ T cells were isolated and co-cultured with HLA-A2+ DC pulsed with CD133 peptides to induce antigen-specific CTLs. Antigens-specific T cell responses were evaluated by an IFN-γ ELISPOT assay.
Human monocyte-derived DC was generated using previously described methods. Briefly, monocytes were isolated from PBMC by magnetic immunoselection using EasySep human monocyte enrichment kit (Stem Cell Technologies) in accordance with the manufacturer's instructions and then cultured at […] in 20 ml of GMP CellGenix DC serum-free medium (Cat#20801-0500, Cellgenix) supplemented with 1000 unit/ml of recombinant human GM-CSF (Cat#AF-300-03, Peprotech, Inc) and recombinant human IL-4(Cat# AF-200-04, Peprotech, Inc). Cells were harvested after 3 or 6 days of culture. The DCs were washed and plated in 6-well plates at a concentration of 5×10^6 cells/well IFN-γ (1000 unit/ml) and monophosphoryl lipid A (MPLA, 20-50 μg/ml) was added into the wells to mature the DC for 24 hr or 48 hrs. Prior to some assays, DC was frozen and stored into liquid nitrogen.
In order to evaluate antigen-specific immune responses, CD8^+ T cells were isolated from fresh or frozen apheresis by positive selection using Dynabeads® CD8 Positive Isolation Kit (Life Technologies, Grand Island, N.Y.) and co-cultured with autologous mDC for four weeks. DCs were added weekly. Briefly, mDC was pulsed with synthetic peptides ([…]) for 6-8 hours at 37° C., and then treated with 20 μg/ml Mitomycin C (Sigma-Aldrich, St. Louis, Mo.) for 25 min at 37° C. and 5% CO2. […]
Antigen-specific immune responses were evaluated by the IFN-γ Elispot kit (BD Biosciences) following previously described methods. […] The colored spots, representing cytokine-producing cells, were counted under a dissecting microscope. The results were evaluated by an automated ELISPOT reader system using KS ELISPOT 4.3 software.

Sequence | antigen-specific T cell response (IFN-γ ELISPOT)
ILSAFSVYV (listed as Homo sapiens) [CD133p405, CD133 HLA-A2 peptide, position 405-413] | can efficiently recognize T2 pulsed with these antigens and boost the T cell immune response
YLQWIEFSI (listed as Homo sapiens) [CD133p753, CD133 HLA-A2 peptide] | can efficiently recognize T2 pulsed with these antigens and boost the T cell immune response
FLLPALIFAV (listed as Homo sapiens) [CD133p804, CD133 HLA-A2 peptide, position 804-813] | can efficiently recognize T2 pulsed with these antigens and boost the T cell immune response
